{
  "source": "paper PMC6300282",
  "about": "“Sulphamethazine derivatives as immunomodulating agents: New therapeutic strategies for inflammatory diseases” (PLoS ONE, 2018)",
  "data": [
    {"units": {"melting point": "°C"}, "values": [
      {"smiles": "Cc1cc(C)nc(NS(=O)(=O)c2ccc(NC(=O)c3cc(F)cc(F)c3)cc2)n1", "note": "[Compound 7, N-(4-(N-(4,6-dimethylpyrimidin-2-yl)sulfamoyl)phenyl)-3,5-difluorobenzamide]", "melting point": "237 to 240"},
      {"smiles": "Cc1cc(C)nc(NS(=O)(=O)c2ccc(NC(=O)C(C)Cl)cc2)n1", "note": "(stereo not drawn) [Compound 11, 2-Chloro-N-(4-(N-(4,6-dimethylpyrimidin-2-yl)sulfamoyl)phenyl)propanamide]", "melting point": "256 to 258"},
      {"smiles": "Cc1cc(C)nc(NS(=O)(=O)c2ccc(NC(=O)c3cccc([N+](=O)[O-])c3)cc2)n1", "note": "[Compound 13, N-(4-(N-(4,6-dimethylpyrimidin-2-yl)sulfamoyl)phenyl)-3-nitrobenzamide]", "melting point": "251 to 253"}
    ]}
  ]
}
